Laboratory results reported in publication PMC7750190, “GapB Is Involved in Biofilm Formation Dependent on LrgAB but Not the SinI/R System in Bacillus cereus 0-9” (Frontiers in Microbiology, 2020).

Biological target: T1, GapB (Bacillus cereus, UniProt Q817G8)
T1 construct: gene BC_4583; full gapB gene in pET28a, GapB-His6, E. coli BL21 (DE3), Ni-IMAC and Superdex 200, 42 kDa by SDS-PAGE
Test: NAD(P)H production at […] nm
Type: biochemical
Details: 20 mM glyceraldehyde-3-phosphate, 50 mM Na2HPO4, 5 mM EDTA, pH 7.5, 37°C, 30 min

T1 sequence (Q817G8 entry or part of it): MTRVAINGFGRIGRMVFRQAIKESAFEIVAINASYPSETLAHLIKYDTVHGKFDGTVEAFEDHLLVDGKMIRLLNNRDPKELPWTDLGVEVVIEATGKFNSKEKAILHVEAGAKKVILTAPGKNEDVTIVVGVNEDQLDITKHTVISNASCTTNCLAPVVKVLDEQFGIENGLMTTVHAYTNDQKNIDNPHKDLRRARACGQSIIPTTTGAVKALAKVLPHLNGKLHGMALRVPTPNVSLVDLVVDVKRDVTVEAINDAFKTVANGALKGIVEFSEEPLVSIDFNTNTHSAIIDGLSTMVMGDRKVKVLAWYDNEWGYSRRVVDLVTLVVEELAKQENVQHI

| Compound | NAD(P)H production at 340 nm (2 mM NADP+) | NAD(P)H production at 340 nm (10 mM NAD+) |
| --- | --- | --- |
| NC(=O)c1ccc[n+]([C@@H]2O[C@H](COP(=O)(O)OP(=O)(O)OC[C@H]3O[C@@H](n4cnc5c(N)ncnc54)[C@H](OP(=O)(O)O)[C@@H]3O)[C@@H](O)[C@H]2O)c1 [NADP^+] | GapB protein has enzyme activities with either NAD^+ or NADP^+ as a cofactor | – |
| NC(=O)c1ccc[n+]([C@@H]2O[C@H](COP(=O)(O)OP(=O)(O)OC[C@H]3O[C@@H](n4cnc5c(N)ncnc54)[C@H](O)[C@@H]3O)[C@@H](O)[C@H]2O)c1 [NAD^+] | – | GapB protein has enzyme activities with either NAD^+ or NADP^+ as a cofactor |
